≈ marks a conversion by molar mass, not a printed value. Where a SMILES comes first, the peptide text is derived from it.
Legend:
Test in all cases: microbe, parasite or virus in culture
E. coli LEC001 = assay type: cell-based, Escherichia coli; details: for MIC: Escherichia coli, LEC001, 20 h, read-out: Modal MIC
How it was run: (§1)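 Peptides 128→2 μg/mL, 2-fold series; inoculum ~5 × 10^5 CFU/mL from overnight culture (OD600 0.01, mixed 1:1). MHB non-cation-adjusted for bacteria, RPMI 1640 + 2% glucose for fungi. 37 °C, 20 h, OD600. MIC50/MIC90 at 50%/90% inhibition; n ≥ 3.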

E. coli NCTC 12923 = assay type: cell-based, Escherichia coli; details: for MIC: Escherichia coli, NCTC12923, 20 h, read-out: Modal MIC
How it was run: as §1

P. aeruginosa PAO1 = assay type: cell-based, Pseudomonas aeruginosa; details: for MIC: Pseudomonas aeruginosa, PAO1, 20 h, read-out: Modal MIC
Procedure: (§2) Antimicrobial activity was evaluated against a panel of 18 pathogens consisting of eight Gram-negative strains (E. coli NCTC 12923, E. coli LEC001, Pseudomonas aeruginosa PAO1, P. aeruginosa NCTC 13437, Acinetobacter baumannii ATCC 17978, A. baumannii AYE, Klebsiella pneumoniae M6, K. pneumoniae NCTC 13368), four Gram-positive strains (Staphylococcus aureus ATCC 9144, S. aureus NCTC 13616, S. aureus USA300, S. aureus 1199B) and six fungi (Candida auris TDG 1912, C. albicans NCPF 8018, C. krusei NCPF 3876, C. tropicalis NCPF 8760, and C. parapsilosis NCPF 3209). Pathogens were grown in noncation adjusted Mueller Hinton broth (MHB, for bacteria) or Roswell Park Memorial Institute (RPMI 1640) + 2% glucose (for fungi) at 37 °C with 180 rpm shaking and maintained on solid media (tryptic soy agar for bacteria and Sabouraud dextrose agar for fungi). For an antibiogram, see Suppl.
(§3) The 46 peptides were serially diluted (128 to 2 μg/mL) in media down polypropylene 96-well plates. Bacteria or fungi, diluted from an overnight culture to an OD600 of 0.01, were added to the serially diluted peptides at a 1:1 ratio resulting in a starting cell density of ∼5 × 10^5 CFU/mL. Plates were incubated at 37 °C for 20 h, and the optical density was determined spectrophotometrically at 600 nm. Minimum inhibition concentrations (MICs) were determined from a minimum of three biological repeats and are reported in μg/mL as well as μM. […] The MIC50 or MIC90 is defined as the lowest peptide concentration that results in 50% or 90% growth inhibition over a 20 h treatment period, respectively.

P. aeruginosa NCTC 13437 = assay type: cell-based, Pseudomonas aeruginosa; details: for MIC: Pseudomonas aeruginosa, NCTC13437, 20 h, read-out: Modal MIC; for Modal MIC: P. aeruginosa NCTC 13437 (R)
Procedure: as §2, §3

K. pneumoniae NCTC 13368 = assay type: cell-based, Klebsiella pneumoniae; details: for MIC: Klebsiella pneumoniae, NCTC13368, 20 h, read-out: Modal MIC; for Modal MIC: K. pneumoniae NCTC 13368 (R)
Procedure: as §2, §3

K. pneumoniae M6 = assay type: cell-based, Klebsiella pneumoniae; details: for MIC: Klebsiella pneumoniae, M6, 20 h, read-out: Modal MIC
Procedure: as §2, §3

S. aureus (MRSA) 1199B = assay type: cell-based, Staphylococcus aureus; details: for MIC: Staphylococcus aureus, MRSA, read-out: Modal MIC; for Modal MIC: S. aureus (MRSA) 1199B (R)
How it was run: as §1

[1] = tested on: S. aureus (MSSA) ATCC 9144; assay type: cell-based, Staphylococcus aureus; details: 20 h; for MIC: Staphylococcus aureus, read-out: Modal MIC
How it was run: as §1

S. aureus (MRSA) USA300 = assay type: cell-based, Staphylococcus aureus; details: for MIC: Staphylococcus aureus, read-out: Modal MIC; for Modal MIC: S. aureus (MRSA) USA300 (R)
How it was run: as §1

[2] = tested on: S. aureus (MRSA) NCTC 13616; assay type: cell-based, Staphylococcus aureus; details: for MIC: Staphylococcus aureus, read-out: Modal MIC; for Modal MIC: S. aureus (MRSA) NCTC 13616 (R)
How it was run: as §1

A. baumannii ATCC 17978 = assay type: cell-based, Acinetobacter baumannii; details: for MIC: Acinetobacter baumannii, ATCC17978, 20 h, read-out: Modal MIC
How it was run: as §1

A. baumannii AYE = assay type: cell-based, Acinetobacter baumannii; details: for MIC: Acinetobacter baumannii, read-out: Modal MIC; for Modal MIC: A. baumannii AYE (R)
How it was run: as §1

C. auris TDG 1912 = assay type: cell-based, Candida auris; details: TDG 1912, 20 h
Procedure: as §2, §3

C. glabrata NCPF 8018 = assay type: cell-based; details: NCPF 8018, 20 h
How it was run: as §1

C. albicans NCPF 3281 = assay type: cell-based; details: NCPF 3281, 20 h
How it was run: as §1

C. krusei NCPF 3876 = assay type: cell-based; details: NCPF 3876, 20 h
How it was run: as §1

[3] = tested on: C. parapsilosis NCPF 3209; assay type: cell-based; details: NCPF 3209, 20 h
How it was run: as §1

C. tropicalis NCPF 8760 = assay type: cell-based; details: NCPF 8760, 20 h
How it was run: as §1

[4] = MHB, 37 °C, 20 h, OD600, min. three biological repeats

| Compound | MIC (E. coli LEC001) | MIC (E. coli NCTC 12923) | MIC (P. aeruginosa PAO1) | MIC (P. aeruginosa NCTC 13437) | MIC (K. pneumoniae NCTC 13368) | MIC (K. pneumoniae M6) | MIC (S. aureus (MRSA) 1199B; 20 h) | MIC [1] | MIC (S. aureus (MRSA) USA300; 20 h) | MIC ([2]; 20 h) | MIC (A. baumannii ATCC 17978) | MIC (A. baumannii AYE; 20 h) | Modal MIC (P. aeruginosa NCTC 13437; [4]) | Modal MIC (K. pneumoniae NCTC 13368; [4]) | Modal MIC (S. aureus (MRSA) 1199B; [4]) | Modal MIC (S. aureus (MRSA) USA300; [4]) | Modal MIC [2, 4] | Modal MIC (A. baumannii AYE; [4]) | also measured |
| --- | --- | --- | --- | --- | --- | --- | --- | --- | --- | --- | --- | --- | --- | --- | --- | --- | --- | --- | --- |
| CC(C)(O/N=C(\C(=O)N[C@@H]1C(=O)N2C(C(=O)[O-])=C(C[n+]3ccccc3)CS[C@H]12)c1csc(N)n1)C(=O)O [Ceftazidime, reference compound] | 128 µg/mL (≈ 234 µM) | ≤ 0.125 µg/mL | 1 µg/mL (≈ 1.83 µM) | > 128 µg/mL | 512 µg/mL (≈ 937 µM) | < 0.5 µg/mL | 8 µg/mL (≈ 14.6 µM) | 16 µg/mL (≈ 29.3 µM) | 32 µg/mL (≈ 58.5 µM) | 128 µg/mL (≈ 234 µM) | < 0.5 µg/mL | > 128 µg/mL | – | – | – | – | – | – | – |
| O=C(O)c1cn(C2CC2)c2cc(N3CCNCC3)c(F)cc2c1=O [Ciprofloxacin, reference compound] | 32 µg/mL (≈ 96.6 µM) | ≤ 0.125 µg/mL | 0.5 µg/mL (≈ 1.51 µM) | 64 µg/mL (≈ 193 µM) | 0.5 µg/mL (≈ 1.51 µM) | < 0.5 µg/mL | 8 µg/mL (≈ 24.1 µM) | 1 µg/mL (≈ 3.02 µM) | 64 µg/mL (≈ 193 µM) | 64 µg/mL (≈ 193 µM) | 0.5 µg/mL (≈ 1.51 µM) | 128 µg/mL (≈ 386 µM) | – | – | – | – | – | – | – |
| CC[C@H](C)[C@H](NC(=O)[C@@H](N)CCCCN)C(=O)N[C@@H](C)C(=O)N[C@@H](CCCCN)C(=O)N[C@H](C(=O)N[C@@H](C)C(=O)N[C@@H](CC(C)C)C(=O)N[C@@H](CCCCN)C(=O)N[C@@H](C)C(=O)N[C@@H](CC(C)C)C(N)=O)C(C)C [DRAMP02273a] (H-KIAKVALKAL-NH2) | – | – | – | – | – | – | – | – | – | – | – | – | > 128 µg/mL | > 128 µg/mL | > 128 µg/mL | > 128 µg/mL | > 128 µg/mL | > 128 µg/mL | Modal MIC (P. aeruginosa NCTC 13437; shown in µM): > 117.5 µM; Modal MIC50 (C. auris TDG 1912): > 117.5 µM; Modal MIC90 (C. auris TDG 1912): > 117.5 µM; Modal MIC50 (C. glabrata NCPF 8018): > 117.5 µM; Modal MIC90 (C. glabrata NCPF 8018): > 117.5 µM; Modal MIC50 (C. albicans NCPF 3281): > 117.5 µM; Modal MIC90 (C. albicans NCPF 3281): > 117.5 µM; Modal MIC50 (C. krusei NCPF 3876): > 117.5 µM; Modal MIC90 (C. krusei NCPF 3876): > 117.5 µM; Modal MIC50 [3]: > 117.5 µM; Modal MIC90 [3]: > 117.5 µM; Modal MIC50 (C. tropicalis NCPF 8760): > 117.5 µM; Modal MIC90 (C. tropicalis NCPF 8760): > 117.5 µM; Modal MIC (K. pneumoniae NCTC 13368; shown in µM): > 117.5 µM; Modal MIC (S. aureus (MRSA) 1199B; shown in µM): > 117.5 µM; Modal MIC (S. aureus (MRSA) USA300; shown in µM): > 117.5 µM; Modal MIC ([2]; shown in µM): > 117.5 µM; Modal MIC (A. baumannii AYE; shown in µM): > 117.5 µM |
| NC[C@H]1O[C@H](O[C@H]2[C@H](O)[C@@H](O[C@H]3O[C@H](CO)[C@@H](O)[C@H](N)[C@H]3O)[C@H](N)C[C@@H]2N)[C@H](N)C[C@@H]1O [Tobramycin, reference compound] | 8 µg/mL (≈ 17.1 µM) | 16 µg/mL (≈ 34.2 µM) | 2 µg/mL (≈ 4.28 µM) | 64 µg/mL (≈ 137 µM) | 64 µg/mL (≈ 137 µM) | 8 µg/mL (≈ 17.1 µM) | 0.25 µg/mL (≈ 0.535 µM) | 0.25 to 0.5 µg/mL (≈ 0.535 to 1.07 µM) | – | 0.5 µg/mL (≈ 1.07 µM) | 4 µg/mL (≈ 8.56 µM) | 64 µg/mL (≈ 137 µM) | – | – | – | – | – | – | – |
| Gentamycin [reference compound] | – | – | – | – | – | – | – | – | – | – | – | – | 256 µg/mL | 4 µg/mL | 0.25 µg/mL | 4 µg/mL | 0.25 µg/mL | > 512 µg/mL | Modal MIC (E. coli LEC001; E. coli LEC001 (R), MHB, 37 °C, 20 h, OD600, min. three biological repeats): 4 µg/mL; Modal MIC (E. coli NCTC 12923; E. coli NCTC 12923 (S), MHB, ~5×10^5 CFU/mL, 37 °C, 20 h, OD600, min. three biological repeats): 1 µg/mL; Modal MIC (P. aeruginosa PAO1; P. aeruginosa PAO1 (S), MHB, 37 °C, 20 h, OD600, min. three biological repeats): 4 µg/mL; Modal MIC (K. pneumoniae M6; K. pneumoniae M6 (S), MHB, 37 °C, 20 h, OD600, min. three biological repeats): 0.25 µg/mL; Modal MIC ([1]; S. aureus (MSSA) ATCC 9144 (S), MHB, 37 °C, OD600, min. three biological repeats): 0.25 µg/mL; Modal MIC (A. baumannii ATCC 17978; A. baumannii ATCC 17978 (S), MHB, 37 °C, 20 h, OD600, min. three biological repeats): 0.5 µg/mL |
